Data taken from US8741932B2, “Imidazopyridine derivatives” (Piramal Enterprises Limited, priority 2009, dated 2014).

The molecules below were run on IL-6 (assay: Human monocyte assay, LPS-stimulated IL-6). Conditions: Monocyte; human monocytes, 1 μg/ml LPS, 5 hours.
Assay type: cell-based
Description: The assay was designed as in the reference, Physiol.
Peripheral blood mononuclear cells (hPBMC) were harvested from human blood and suspended in RPMI 1640 culture medium containing 10% FCS, 100 U/mL penicillin and […] streptomycin (assay medium). Monocytes in the hPBMCs were counted using a Coulter Counter following which the cells were resuspended at 2×10^5 monocytes/mL. A cell suspension containing 2×10^4 monocytes was aliquoted per well of a 96-well plate. Subsequently, the hPBMCs were incubated for 4-5 hours at 37° C., 5% CO2 (During the incubation, the monocytes adhered to the bottom of 96-well plastic culture plate). Following the incubation, the non-adherent lymphocytes were washed with assay medium and the adherent monocytes re-fed with assay medium. After a 48-hour incubation period (37° C., 5% CO2), monocytes were pretreated with various concentrations of representative compounds of present invention (refer to table 6 and 7) (prepared in DMSO) or vehicle (0.5% DMSO) for 30 minutes and stimulated with 1 μg/ml LPS (Escherchia coli 0111:B4, Sigma Chemical Co., St. Louis, Mo.). The incubation was continued for 5 hours at 37° C., 5% CO2. Supernatants were harvested, assayed for IL-6 and TNF-α by ELISA as described by the manufacturer (BD Biosciences, USA). Dexamethasone (10 μM) was used as standard for this assay. […] Biological results for both IL-6 and TNFα are indicated in Table 6 and Table 7 respectively.
For CN(/N=C/c1cnc2ccc(-c3cccnc3)cn12)S(=O)(=O)c1ccc(F)c(F)c1F [Example 34, (E)-2,3,4-Trifluoro-N-methyl-N′-((6-(pyridin-3-yl)imidazo[1,2-a]pyridin-3-yl)methylene)benzenesulfonohydrazide], the IC50 was 0.001 to 5 µM. With CN(/N=C/c1cnc2ccc(-c3cccnc3)cn12)S(=O)(=O)c1cc(F)c(Br)cc1F [Example 35, (E)-4-bromo-2,5-difluoro-N-methyl-N′-((6-(pyridin-3-yl)imidazo[1,2-a]pyridin-3-yl)methylene)benzenesulfonohydrazide] the IC50 was 0.001 to 5 µM. Molecule CN(/N=C/c1cnc2ccc(-c3cccnc3)cn12)S(=O)(=O)c1ccc(F)cc1Br [Example 36, (E)-2-bromo-4-fluoro-N-methyl-N′-((6-(pyridin-3-yl)imidazo[1,2-a]pyridin-3-yl)methylene)benzenesulfonohydrazide] has an IC50 of no less than 5 µM. Work on CN(/N=C/c1cnc2ccc(-c3cccnc3)cn12)S(=O)(=O)c1cccc(Cl)c1 [Example 39, (E)-3-chloro-N-methyl-N′-((6-(pyridin-3-yl)imidazo[1,2-a]pyridin-3-yl)methylene)benzenesulfonohydrazide] yielded an IC50 of 0.001 to 5 µM. Work on CN(/N=C/c1cnc2ccc(-c3cccnc3)cn12)S(=O)(=O)c1ccc(C(F)(F)F)cc1Cl [Example 40, (E)-2-chloro-N-methyl-N′-((6-(pyridin-3-yl)imidazo[1,2-a]pyridin-3-yl)methylene)-4-(trifluoromethyl)benzenesulfonohydrazide] yielded an IC50 of 0.001 to 5 µM. With CN(/N=C/c1cnc2ccc(-c3cccnc3)cn12)S(=O)(=O)c1ccc(F)cc1Cl [Example 41, (E)-2-chloro-4-fluoro-N-methyl-N′-((6-(pyridin-3-yl)imidazo[1,2-a]pyridin-3-yl)methylene) benzenesulfonohydrazide] the IC50 was 0.001 to 5 µM. Molecule Cc1nc(S(=O)(=O)N(C)/N=C/c2cnc3ccc(-c4cccnc4)cn23)cn1C [Example 42, (E)-N, 1,2-trimethyl-N′-((6-(pyridin-3-yl)imidazo[1,2-a]pyridin-3-yl)methylene)-1H-imidazole-4-sulfonohydrazide] has an IC50 of no less than 5 µM. Cc1cc(S(=O)(=O)N(C)/N=C/c2cnc3ccc(-c4cccnc4)cn23)c(C)cc1Cl [Example 43, (E)-4-chloro-N, 2,5-trimethyl-N′-((6-(pyridin-3-yl)imidazo[1,2-a]pyridin-3-yl)methylene) benzenesulfonohydrazide] gave an IC50 of no less than 5 µM. CN(/N=C/c1cnc2ccc(-c3cccnc3)cn12)S(=O)(=O)c1cc(F)ccc1F [Example 44, (E)-2,5-difluoro-N-methyl-N′-((6-(pyridin-3-yl)imidazo[1,2-a]pyridin-3-yl)methylene) benzenesulfonohydrazide] gave an IC50 of 0.001 to 5 µM. Molecule CN(/N=C/c1cnc2ccc(-c3cccnc3)cn12)S(=O)(=O)c1ccc(I)cc1 [Example 46, (E)-4-Iodo-N-methyl-N′-((6-(pyridin-3-yl)imidazo[1,2-a]pyridin-3-yl)methylene)benzenesulfonohydrazide] has an IC50 of no less than 5 µM. CN(/N=C/c1cnc2ccc(-c3cccnc3)cn12)S(=O)(=O)c1ccc(-c2cc(C(F)(F)F)ccc2F)cc1 [Example 47, (E)-2′-Fluoro-N-methyl-N′-((6-(pyridin-3-yl)imidazo[1,2-a]pyridin-3-yl)methylene)-5′-(trifluoromethyl)biphenyl-4-sulfonohydrazide] showed an IC50 of no less than 5 µM. With Cc1ccc(C)c(S(=O)(=O)N(C)/N=C/c2cnc3ccc(-c4cccnc4)cn23)c1 [Example 50, (E)-N, 2,5-trimethyl-N′-((6-(pyridin-3-yl)imidazo[1,2-a]pyridin-3-yl)methylene)benzenesulfonohydrazide] the IC50 was 0.001 to 5 µM. In the case of CN(/N=C/c1cnc2ccc(-c3cccnc3)cn12)S(=O)(=O)c1cc(Br)ccc1Br [Example 51, (E)-2,5-dibromo-N-methyl-N′-((6-(pyridin-3-yl)imidazo[1,2-a]pyridin-3-yl)methylene) benzenesulfonohydrazide], the IC50 is reported as 0.001 to 5 µM. Molecule COc1ccc(OC)c(S(=O)(=O)N(C)/N=C/c2cnc3ccc(-c4cccnc4)cn23)c1 [Example 52, (E)-2,5-dimethoxy-N-methyl-N′-((6-(pyridin-3-yl)imidazo[1,2-a]pyridin-3-yl)methylene) benzenesulfonohydrazide] has an IC50 of 0.001 to 5 µM. For COc1ccc(Cl)cc1S(=O)(=O)N(C)/N=C/c1cnc2ccc(-c3cccnc3)cn12 [Example 55, (E)-5-chloro-2-methoxy-N-methyl-N′-((6-(pyridin-3-yl)imidazo[1,2-a]pyridin-3-yl)methylene) benzenesulfonohydrazide], the IC50 was 0.001 to 5 µM. CN(/N=C/c1cnc2ccc(-c3cccnc3)cn12)S(=O)(=O)c1ccc(Br)cc1OC(F)(F)F [Example 56, (E)-4-bromo-N-methyl-N′-((6-(pyridin-3-yl)imidazo[1,2-a]pyridin-3-yl)methylene)-2-(trifluoromethoxy)benzenesulfonohydrazide] was tested, and the IC50 was 0.001 to 5 µM. Molecule CN(/N=C/c1cnc2ccc(-c3cccnc3)cn12)S(=O)(=O)c1cc(C(F)(F)F)ccc1Br [Example 57, (E)-2-bromo-N-methyl-N′-((6-(pyridin-3-yl)imidazo[1,2-a]pyridin-3-yl)methylene)-5-(trifluoromethyl)benzenesulfonohydrazide] has an IC50 of 0.001 to 5 µM. For CN(/N=C/c1cnc2ccc(-c3cccnc3)cn12)S(=O)(=O)c1ccccc1[N+](=O)[O-] [Example 58, (E)-N-methyl-2-nitro-N′-((6-(pyridin-3-yl)imidazo[1,2-a]pyridin-3-yl)methylene)benzenesulfonohydrazide], the IC50 was 0.001 to 5 µM. CN(/N=C/c1cnc2ccc(-c3cccnc3)cn12)S(=O)(=O)c1ccccc1S(C)(=O)=O [Example 59, (E)-N-methyl-2-(methylsulfonyl)-N′-((6-(pyridin-3-yl)imidazo[1,2-a]pyridin-3-yl)methylene) benzenesulfonohydrazide] showed an IC50 of 0.001 to 5 µM. CN(/N=C/c1cnc2ccc(-c3cccnc3)cn12)S(=O)(=O)c1ccccc1Oc1ccccc1 [Example 60, (E)-N-methyl-2-phenoxy-N′-((6-(pyridin-3-yl)imidazo[1,2-a]pyridin-3-yl)methylene)benzenesulfonohydrazide] showed an IC50 of 0.001 to 5 µM. For CCCCCCS(=O)(=O)N(C)/N=C/c1cnc2ccc(-c3cccnc3)cn12 [Example 61, (E)-N-methyl-N′-((6-(pyridin-3-yl)imidazo[1,2-a]pyridin-3-yl)methylene) hexane-1-sulfonohydrazide], the IC50 was 0.001 to 5 µM. CN(/N=C/c1cnc2ccc(-c3cccnc3)cn12)S(=O)(=O)c1cc(C(F)(F)F)ccc1N1CCOCC1 [Example 62, (E)-N-methyl-2-morpholino-N′-((6-(pyridin-3-yl)imidazo[1,2-a]pyridin-3-yl)methylene)-5-(trifluoromethyl)benzenesulfonohydrazide] gave an IC50 of 0.001 to 5 µM. Molecule Cc1ccc(S(C)(=O)=O)cc1S(=O)(=O)N(C)/N=C/c1cnc2ccc(-c3cccnc3)cn12 [Example 63, (E)-N,2-dimethyl-5-(methylsulfonyl)-N′-((6-(pyridin-3-yl)imidazo[1,2-a]pyridin-3-yl)methylene) benzenesulfonohydrazide] has an IC50 of 0.001 to 5 µM. Work on CN(/N=C/c1cnc2ccc(-c3cccnc3)cn12)S(=O)(=O)c1ccccc1Br [Example 64, (E)-2-bromo-N-methyl-N′-((6-(pyridin-3-yl)imidazo[1,2-a]pyridin-3-yl)methylene) benzenesulfonohydrazide] yielded an IC50 of 0.001 to 5 µM. With CN(/N=C/c1cnc2ccc(-c3cccnc3)cn12)S(=O)(=O)c1ccc(N2CCOCC2)nc1 [Example 66, (E)-N-methyl-6-morpholino-N′-((6-(pyridin-3-yl)imidazo[1,2-a]pyridin-3-yl)methylene) pyridine-3-sulfonohydrazide] the IC50 was 0.001 to 5 µM. COC(=O)c1ccc(S(=O)(=O)N(C)/N=C/c2cnc3ccc(-c4cccnc4)cn23)n1C [Example 67, (E)-Methyl 1-methyl-5-(1-methyl-2-((6-(pyridin-3-yl)imidazo[1,2-a]pyridin-3-yl)methylene) hydrazinylsulfonyl)-1H-pyrrole-2-carboxylate] gave an IC50 of 0.001 to 5 µM. CN1CCOc2cc(S(=O)(=O)N(C)/N=C/c3cnc4ccc(-c5cccnc5)cn34)cnc21 [Example 68, (E)-N,4-dimethyl-N′-((6-(pyridin-3-yl)imidazo[1,2-a]pyridin-3-yl)methylene)-3,4-dihydro-2H-pyrido[3,2-b][1,4]oxazine-7-sulfonohydrazide] gave an IC50 of 0.001 to 5 µM. In the case of CN(/N=C/c1cnc2ccc(-c3cccnc3)cn12)S(=O)(=O)c1cccnc1 [Example 69, (E)-N-methyl-N′-((6-(pyridin-3-yl)imidazo[1,2-a]pyridin-3-yl)methylene) pyridine-3-sulfonohydrazide], the IC50 is reported as 0.001 to 5 µM. CN(/N=C/c1cnc2ccc(-c3cccnc3)cn12)S(=O)(=O)c1ccc(Oc2ccccc2)cc1 [Example 70, (E)-N-methyl-4-phenoxy-N′-((6-(pyridin-3-yl)imidazo[1,2-a]pyridin-3-yl)methylene)benzenesulfonohydrazide] showed an IC50 of 0.001 to 5 µM. CN(/N=C/c1cnc2ccc(-c3cccnc3)cn12)S(=O)(=O)c1ccc(-c2ccccc2)cc1 [Example 72, (E)-N-methyl-N′-((6-(pyridin-3-yl)imidazo[1,2-a]pyridin-3-yl)methylene)biphenyl-4-sulfonohydrazide] was tested, and the IC50 was no less than 5 µM.
